# How the values were obtained:
# Sf21 cells [1] = experiment: Sf21 cell culture: morphology and count of cells displaying processes (transformants); format: cell-based, Spodoptera frugiperda
# Sf21 cells [2] = format: cell-based, Spodoptera frugiperda
# [3] = tested on: continuous cell lines of the Beet Armyworm, Spodoptera exigua; details: cell proliferation assay; cited from earlier work
# [4] = tested on: acetylcholinesterase (ACHE); details: 10^−6 M; cited from earlier work
# [5] = tested on: Aedes aegypti established cell line; details: 2 days exposure to 3×10^−7 M; cited from earlier work
# Drosophila Kc-H line = details: cited from earlier work
compound,measurement,setting,value
nerve growth factor: nerve growth factor (NGF),effect on cell morphology,"Sf21 cells [1]; 20 μg/ml NGF, 48 hours after passage (FIG. 5)",does not induce any similar morphological changes
COc1ccc(C(=O)O[C@H]2CC[C@@]3(C)[C@@H]4CC[C@H]5[C@]6(O)C[C@H](O)[C@@]7(O)[C@@H](CN8C[C@@H](C)CC[C@H]8[C@@]7(C)O)[C@]6(O)C[C@@]53O[C@]24O)cc1OC [veratridine],increase in the number of transformants,Sf21 cells [2],~3 fold
Cc1c(COC(=O)[C@@H]2[C@H](/C=C(\Cl)C(F)(F)F)C2(C)C)cccc1-c1ccccc1 (racemic) [bifenthrin],activity in undifferentiated cells,[3],low activity
CNC(=O)Oc1ccc2c(c1)[C@]1(C)CCN(C)[C@@H]1N2C.CNC(=O)Oc1ccc2c(c1)[C@]1(C)CCN(C)[C@@H]1N2C.O=S(=O)(O)O [serine sulfate],effect on enzyme (AChE),[4],blocked
CC(C)(O)CC[C@@H](O)[C@](C)(O)[C@H]1CC[C@@]2(O)C3=CC(=O)[C@@H]4C[C@@H](O)[C@@H](O)C[C@]4(C)[C@H]3CC[C@]12C [20-hydroxyecdysone],increase in the number of cells showing one or more processes,"Sf21 cells [1]; 20 μg/ml, counted 2 days after treatment, vs control, n=8",~30 fold
same,effect on cell morphology,"Sf21 cells [1]; TNM-FH medium supplemented with 10 μg/ml, 48 hours after passage (FIG. 2)","numerous cells assume the appearance of monopolar neurons, with prominent axon-like structures"
same,stimulation of AChE activity,[5],2 fold
same,concentration at which cells extend long processes and acquire acetylcholinesterase activity,Drosophila Kc-H line,greater than or equal to 10^−8 molar
"NC1=N[C@H](O)[C@H]2[C@H]3O[C@]4(O)O[C@@H]([C@@H](O)[C@@]2(N1)[C@@H]4O)[C@]3(O)CO [TTX, tetrodotoxin]",effect on veratridine-induced increase in transformants,Sf21 cells [2],blocked

# Source: US20050221475A1, “Cell culture procedures for inducing a neuronal phenotype in insect cells” (priority 2004, published 2005)
